According to patent US9365566B2 (Takeda Pharmaceutical Company Limited, priority 2012, dated 2016):

Molecular target: T1, human BTK (Homo sapiens, UniProt Q06187)
T1 construct: GST (Glutathione-S-Transferase) (cleaved yes); made in house; host or cells: Spodoptera frugiperda Sf9 cells (baculovirus, Bac-to-Bac)
Assay: BTK inhibition assay: BTK-mediated phosphorylation of FAM-labeled substrate 5-FAM-EEPLYWSFPAKKK-NH2 (Caliper LC-3000)
Type: biochemical
Settings: pIC50 = -log(IC50), IC50 molar; residues 382 to 659 of human BTK; incubated at room temperature for 60 minutes; larger values represent higher potency

T1 sequence (Q06187 382-659): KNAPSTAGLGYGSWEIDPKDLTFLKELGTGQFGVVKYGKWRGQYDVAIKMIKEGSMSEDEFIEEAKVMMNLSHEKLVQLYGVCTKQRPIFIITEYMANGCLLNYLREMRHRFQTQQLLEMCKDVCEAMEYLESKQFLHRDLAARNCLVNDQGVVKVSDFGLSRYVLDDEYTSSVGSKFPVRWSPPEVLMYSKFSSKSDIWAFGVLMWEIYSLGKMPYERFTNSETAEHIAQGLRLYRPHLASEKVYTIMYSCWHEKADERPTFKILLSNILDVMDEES

Compound	IC50 [nM]
Cc1cc(-c2cc3[nH]ncc3cc2C)c2nnc(C(N)=O)c(N)c2c1 [Example 64, 4-amino-6-methyl-8-(5-methyl-1H-indazol-6-yl)cinnoline-3-carboxamide]	10
Cc1ccc2c(N)c(C(N)=O)nnc2c1-c1ccn2cncc2c1 [Example 114, 4-amino-8-(imidazo[1,5-a]pyridin-7-yl)-7-methylcinnoline-3-carboxamide]	3.98
COc1ccc(-c2cc3[nH]ncc3cc2C)c2nnc(C(N)=O)c(N)c12 [Example 39, 4-amino-5-methoxy-8-(5-methyl-1H-indazol-6-yl)cinnoline-3-carboxamide]	7.94
NC(=O)c1nnc2c(-c3ccc4nc(-c5cc(Cl)cc(Cl)c5)[nH]c4c3)cccc2c1N [Example 67, 4-amino-8-(2-(3,5-dichlorophenyl)-1H-benzo[d]imidazol-6-yl)cinnoline-3-carboxamide]	63.1
Cn1ncc2cc(-c3c(C(F)(F)F)ccc4c(N)c(C(N)=O)nnc34)ccc21 [Example 35, 4-amino-8-(1-methyl-1H-indazol-5-yl)-7-(trifluoromethyl)cinnoline-3-carboxamide]	79.4
Cc1ccc2c(N)c(C(N)=O)nnc2c1-c1ccc2nncn2c1 [Example 112, 8-([1,2,4]triazolo[4,3-a]pyridin-6-yl)-4-amino-7-methylcinnoline-3-carboxamide]	100
Cc1ccc2c(N)c(C(N)=O)nnc2c1-c1cc(F)c2cn[nH]c2c1 [Example 102, 4-amino-8-(4-fluoro-1H-indazol-6-yl)-7-methylcinnoline-3-carboxamide]	25.1
Cn1ncc2cc(-c3cccc4c(N)c(C(N)=O)nnc34)ccc21 [Example 2, 4-amino-8-(1-methyl-1H-indazol-5-yl)cinnoline-3-carboxamide]	158
Cc1cc2cnn(C)c2cc1-c1cccc2c(N)c(C(N)=O)nnc12 [Example 44, 4-amino-8-(1,5-dimethyl-1H-indazol-6-yl)cinnoline-3-carboxamide]	501
NC(=O)c1nnc2c(-c3ccc4nc(-c5ccc(F)cc5)[nH]c4c3)cccc2c1N [Example 116, 4-amino-8-(2-(4-fluorophenyl)-1H-benzo[d]imidazol-6-yl)cinnoline-3-carboxamide]	39.8
Cc1ccc2c(N)c(C(N)=O)nnc2c1-c1cc(F)c2nc[nH]c2c1 [Example 101, 4-amino-8-(4-fluoro-1H-benzo[d]imidazol-6-yl)-7-methylcinnoline-3-carboxamide]	31.6
Cc1ccc2c(N)c(C(N)=O)nnc2c1-c1ccc2[nH]ccc2c1 [Example 24, 4-amino-8-(1H-indol-5-yl)-7-methylcinnoline-3-carboxamide]	251
Cc1ccc2c(N)c(C(N)=O)nnc2c1-c1ccc2cnn(C)c2c1 [Example 45, 4-amino-7-methyl-8-(1-methyl-1H-indazol-6-yl)cinnoline-3-carboxamide]	100
NC(=O)c1nnc2c(-c3ccc4nc(NCc5ccccc5)[nH]c4c3)cccc2c1N [Example 90, 4-amino-8-(2-(benzylamino)-1H-benzo[d]imidazol-6-yl)cinnoline-3-carboxamide]	15.8
NC(=O)c1nnc2c(-c3cnc4cc[nH]c4c3)cccc2c1N [Example 3, 4-amino-8-(1H-pyrrolo[3,2-b]pyridin-6-yl)cinnoline-3-carboxamide]	316
Cc1cc(F)c2c(N)c(C(N)=O)nnc2c1-c1ccc2[nH]ncc2c1 [Example 60, 4-amino-5-fluoro-8-(1H-indazol-5-yl)-7-methylcinnoline-3-carboxamide]	7.94
